Laboratory results from patent US20240217951A1, “PCSK9 INHIBITORS AND METHODS OF USE THEREOF” (AstraZeneca AB, priority 2022, published 2024).

Legend:
[1] = biological target: GSK3β (Glycogen synthase kinase-3 beta) (Homo sapiens, UniProt P49841); assay: Assay 6 - GSK3β assay (ThermoFisher Z-Lyte); assay type: biochemical; settings: geometric mean; ATP Conc: 10 μM; read-out: Assay 6 (GSK3β FRET-Z-Lyte CR) GMean IC50 (μM) ATP Conc: 10
Experimental: Assay 6—GSK3β Assay (ThermoFisher Assay)
This assay measures the activity of the compounds at GSK3β (Glycogen synthase kinase-3 beta).
The test compounds were screened in 1% DMSO (final) in the well. For 10 point titrations, 3-fold serial dilutions are conducted from the starting concentration of 10 μM.
Bar-coded Corning, low volume NBS, black 384-well plate • 1. 2.5 μL—4× Test Compound or 100 nL 100× plus 2.4 μL kinase buffer • 2. 5 μL—2× Peptide/Kinase Mixture • 3. 2.5 μL—4×ATP Solution • 4. 30-second plate shake • 5. 60-minute Kinase Reaction incubation at room temperature • 6. 5 μL—Development Reagent Solution • 7. 30-second plate shake • 8. 60-minute Development Reaction incubation at room temperature • 9. Read on fluorescence plate reader and analyse the data
In step 2, the 2×GSK3β (GSK3 beta)/Ser/Thr (Glycogen synthase kinase-3 beta/Serine/Threonine) 09 mixture is prepared in 50 mM HEPES (4-(2-hydroxyethyl)-1-piperazineethanesulfonic acid) pH 7.5, 0.01% BRIJ-35, 10 mM MgCl2, 1 mM EGTA (egtazic acid). The final 10 μL Kinase Reaction consists of 0.22-0.92 ng GSK3β (GSK3 beta) and 2 μM Ser/Thr 09 in 50 mM HEPES pH 7.5, 0.01% BRIJ-35, 10 mM MgCl2, 1 mM EGTA.
In step 3 the ATP Solution is diluted to a 4× working concentration in Kinase Buffer (50 mM HEPES pH 7.5, 0.01% BRIJ-35, 10 mM MgCl2, 1 mM EGTA).
In Step 6 the Development Reagent is diluted 1:512 in Development Buffer (10× Novel PKC Lipid Mix: 2 mg/mL Phosphatidyl Serine, 0.2 mg/mL DAG in 20 mM HEPES, pH 7.4, 0.3% CHAPS).
SelectScreen® Kinase Profiling Service uses XLfit from IDBS. The dose response curve is curve fit to model number 205 (sigmoidal dose-response model).

[2] = biological target: T1, potassium ion channel hERG (human Ether-á-go-go-Related Gene) (Homo sapiens, UniProt Q12809); assay: Assay 5 - hERG assay (SyncroPatch 384PE patch clamp, CHO cells); assay type: cell-based; settings: geometric mean; CHO cells over-expressing hERG; read-out: Assay 5 (hERG Hu CHO IF EPh CR-Syncro) GMean IC50
T1 construct: expressed in transfected cells; host or cells: Chinese hamster ovary K1 (CHO)
Experimental: Assay 5—hERG Assay (Human Ether-á-go-go-Related Gene)
This assay (human Ether-á-go-go-Related Gene) measures activity of the compounds at the potassium ion channel hERG (human Ether-á-go-go-Related Gene).
Experiments were performed on the SyncroPatch 384PE high throughput patch clamp platform at room temperature and medium resistance chips with 4 patch holes per site. Chinese hamster ovary K1 (CHO) cell lines over-expressing the ion channel of choice (hERG) were used in assay-ready format and kept in liquid nitrogen or were used from live culture. Cells were either thawed and diluted in HBSS or were detached from flasks and resuspended in HBSS. HBSS comprised 140 mM NaCl, 4 mM KCl, 10 mM HEPES and 5 mM Glucose (pH7.4). The internal patch clamp solution was KF 120 mM, KCl 20 mM, HEPES 10 mM, EGTA 10 mM, and 25 PM Escin (pH 7.2). After the sealing process was complete, the external solution was exchanged for external patch clamp solution comprising NaCl 80 mM, KCl 4 mM, HEPES 10 mM, CaCl2 2 mM, MgCl2 1 mM, glucose 5 mM, and NMDG 60 mM (pH 7.4). All solutions were stored at room temperature, except Escin, which was stored at 4° C. All test compounds were dispensed in greiner-bio 384 well plates and tested in a 6 point cumulative assay (final DMSO concentration 0.33%). Only wells that passed previously agreed acceptance criteria for this platform were used in this analysis (30 MegaOhm seal resistance, Z prime >0.4 and current size >0.2 nA).

PCSK9 [3] = biological target: T2, PCSK9 (Homo sapiens, UniProt Q8NBP7, G670E/V474I); assay: Assay 3 - PCSK9 LDL-C uptake assay in HepG2 cells; assay type: cell-based; parameters: TEV cleavage site (C); His6 (C); host or cells: added to HepG2 cells (ATCC #HB-8065); settings: 125 nM PCSK9, pHrodo Red-LDL, read-out: Assay 3 LDL uptake potency
Description: Assay 3—PCSK9 LDL-C Uptake Assay
This assay measures for PCSK9 antagonist activity based on a test compound's capacity to restore LDL-C-uptake in HepG2 cells. The assay is based on exogenous PCSK9 and LDL-C complexed with a pH-sensitive dye. Outside the cells, at neutral pH, the pHrodo Red-LDL is dimly fluorescent but upon LDLR mediated endocytosis it fluoresces brightly. PCSK9 traffics the LDLR to intracellular degradation and reduces uptake of LDL-C. Inhibition of PCSK9 reduces LDLR degradation and the increased LDL-C uptake is quantified by fluorescence microscopy.
Preparation of Assay Reagents
Cell medium: MEM supplemented with 10% FBS, 1×NEAA and Sodium Pyruvate Assay medium: OptiMem supplemented with penicillin/streptomycin
Cells: HepG2 (ATCC #HB-8065)
Step by Step Protocol for Running the Assay:
• 1. Cryopreserved HepG2 cells were thawed in assay medium and centrifuged for 5 min at 250 g. Supernatant was discarded and the cell pellet resuspended in cell medium and counted with a Nucleocounter. Cells were again centrifuged 5 min at 250 g and the pellet was resuspended to 500000 cells/mL in assay medium. • 2. 20 μL of above cell mix was dispensed into black pclear TC treated 384 well plates with Multidrop Combi and left at room temperature for 20 minutes. • 3. Plates were incubated at 37° C., 5% CO2 for 24 h
• 1. Test compounds were prepared in concentration response in DMSO with a half-log dilution factor in DMSO in Echo 384 LDV plates starting at 10 mM. • 2. 30 nL of above test compounds were dispensed with Echo 655 to cells for a top concentration of 10 μM • 3. 10 μL PCSK9 in assay medium was dispensed to cells with Multidrop Combi for 125 nM final concentration in the wells. • 4. Plates were incubated at 37° C., 5% CO2 for 24 h
• 1. 10 μL pHrodo Red-LDL in assay medium was dispensed to cells with Multidrop Combi for 6 μg/mL • 2. Plates were incubated at 37° C., 5% CO2 and imaged with the Incucyte S3 after 4 h and 24 h
Image data was processed using Incucyte 2021, a software to identify cells and red fluorescent intensity. Screener was used to further process data. Data was normalized as % effect of the signal between median values of the on-plate controls of DMSO and 100 nM Evolocumab according to the formula % effect=−100*(x−DMSO)/(Evolocumab−DMSO) where x equals the measured signal. Concentration response data of the normalized values were fitted using a four-parameter logistic fit.

PCSK9 [4] = biological target: T2, PCSK9; assay: biochemical

Sequence of GSK3β (Glycogen synthase kinase-3 beta) (P49841 whole entry): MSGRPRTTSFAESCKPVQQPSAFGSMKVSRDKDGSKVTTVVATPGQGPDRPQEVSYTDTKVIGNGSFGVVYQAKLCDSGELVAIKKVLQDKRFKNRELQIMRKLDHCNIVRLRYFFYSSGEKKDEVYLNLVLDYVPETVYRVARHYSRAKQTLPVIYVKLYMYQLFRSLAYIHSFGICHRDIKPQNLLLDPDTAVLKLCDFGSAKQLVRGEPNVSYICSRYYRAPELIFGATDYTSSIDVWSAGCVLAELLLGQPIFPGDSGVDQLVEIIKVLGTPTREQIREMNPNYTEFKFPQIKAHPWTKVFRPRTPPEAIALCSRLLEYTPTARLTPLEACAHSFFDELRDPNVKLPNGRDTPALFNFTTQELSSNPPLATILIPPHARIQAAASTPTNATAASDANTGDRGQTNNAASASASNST
T1 sequence (Q12809 whole entry): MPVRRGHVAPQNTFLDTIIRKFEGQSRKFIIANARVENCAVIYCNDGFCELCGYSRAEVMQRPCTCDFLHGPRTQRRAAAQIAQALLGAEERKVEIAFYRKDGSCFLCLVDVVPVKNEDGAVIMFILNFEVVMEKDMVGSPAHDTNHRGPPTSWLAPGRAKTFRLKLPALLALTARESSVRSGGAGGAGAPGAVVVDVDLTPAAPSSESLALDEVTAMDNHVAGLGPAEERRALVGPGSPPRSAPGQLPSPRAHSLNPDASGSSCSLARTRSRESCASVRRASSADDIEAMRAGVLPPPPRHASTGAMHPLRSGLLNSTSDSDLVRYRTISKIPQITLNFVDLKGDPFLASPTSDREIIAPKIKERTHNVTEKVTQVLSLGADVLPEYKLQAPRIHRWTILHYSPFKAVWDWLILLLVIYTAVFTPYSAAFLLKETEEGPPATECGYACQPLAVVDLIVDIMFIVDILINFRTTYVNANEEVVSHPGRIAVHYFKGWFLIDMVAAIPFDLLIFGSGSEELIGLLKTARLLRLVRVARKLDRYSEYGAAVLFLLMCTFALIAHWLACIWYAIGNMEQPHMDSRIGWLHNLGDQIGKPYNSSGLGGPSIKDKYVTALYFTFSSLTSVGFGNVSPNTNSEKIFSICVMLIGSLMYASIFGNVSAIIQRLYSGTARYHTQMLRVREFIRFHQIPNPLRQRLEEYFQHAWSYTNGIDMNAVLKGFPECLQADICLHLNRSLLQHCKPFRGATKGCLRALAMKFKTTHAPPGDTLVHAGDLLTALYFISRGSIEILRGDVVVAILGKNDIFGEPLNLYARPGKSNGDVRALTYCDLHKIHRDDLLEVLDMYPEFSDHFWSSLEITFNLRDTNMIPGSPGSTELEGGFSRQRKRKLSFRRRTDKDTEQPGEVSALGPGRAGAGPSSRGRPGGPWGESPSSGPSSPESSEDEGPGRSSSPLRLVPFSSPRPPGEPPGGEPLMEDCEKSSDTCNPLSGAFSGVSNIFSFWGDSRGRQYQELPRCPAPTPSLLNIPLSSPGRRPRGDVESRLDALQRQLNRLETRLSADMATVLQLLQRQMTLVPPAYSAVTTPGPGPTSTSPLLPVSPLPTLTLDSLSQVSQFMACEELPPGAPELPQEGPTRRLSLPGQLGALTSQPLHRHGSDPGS
T2 sequence (Q8NBP7 with tags, fused parts or gaps V474I/G670E): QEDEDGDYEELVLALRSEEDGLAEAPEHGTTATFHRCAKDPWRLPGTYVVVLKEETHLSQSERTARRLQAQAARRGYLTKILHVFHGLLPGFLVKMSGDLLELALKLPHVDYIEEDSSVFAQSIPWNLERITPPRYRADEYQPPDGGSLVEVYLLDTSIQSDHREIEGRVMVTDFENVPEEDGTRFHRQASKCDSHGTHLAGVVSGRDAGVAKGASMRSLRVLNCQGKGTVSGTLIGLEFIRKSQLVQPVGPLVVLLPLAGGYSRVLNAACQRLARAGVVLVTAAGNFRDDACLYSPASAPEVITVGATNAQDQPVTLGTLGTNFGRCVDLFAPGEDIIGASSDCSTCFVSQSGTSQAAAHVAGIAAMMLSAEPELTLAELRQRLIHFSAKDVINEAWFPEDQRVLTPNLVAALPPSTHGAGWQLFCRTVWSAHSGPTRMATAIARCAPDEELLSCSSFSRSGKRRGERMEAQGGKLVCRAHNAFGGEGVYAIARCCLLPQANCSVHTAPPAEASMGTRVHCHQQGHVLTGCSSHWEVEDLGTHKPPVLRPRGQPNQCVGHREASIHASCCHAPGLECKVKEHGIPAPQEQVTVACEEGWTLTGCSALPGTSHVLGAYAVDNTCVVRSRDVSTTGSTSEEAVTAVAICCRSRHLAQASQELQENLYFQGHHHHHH

`COc1cccn(-c2ccc(N[C@H]3CC[C@H](Nc4cnc(C)cn4)C3)nc2)c1=O` (racemic) [Example 170, rel-3-Methoxy-6′-(((1R,3R)-3-((5-methylpyrazin-2-yl)amino)cyclopentyl)amino)-2H-[1,3′-bipyridin]-2-one] was tested, and the IC50 [1] was 7 µM, the IC50 [2] was greater than 40100 nM and the EC50 (PCSK9 [3]) was 200 nM. It also gave an IC50 (PCSK9 [4]) of 11 nM.
`COc1cccn(-c2ccc(N[C@H]3CC[C@H](Nc4cnc(C)cn4)C3)nc2)c1=O` (relative stereo) [Example 172, rel-3-Methoxy-6′-(((1R,3R)-3-((5-methylpyrazin-2-yl)amino)cyclopentyl)amino)-2H-[1,3′-bipyridin]-2-one] showed an IC50 [1] of 3.7 µM, an IC50 [2] greater than 40100 nM and an EC50 (PCSK9 [3]) of 100 nM. For the same compound, the IC50 (PCSK9 [4]) was 5.3 nM.
With `Cc1ncc(N[C@H]2CC[C@H](Nc3ccc(-n4c(=O)n(C)c5ccccc54)cn3)C2)nc1C` [Example 11, 1-(6-(((1S,3S)-3-((5,6-Dimethylpyrazin-2-yl)amino)cyclopentyl)amino)pyridin-3-yl)-3-methyl-1,3-dihydro-2H-benzo[d]imidazol-2-one] the IC50 [1] was greater than 10 µM, the IC50 [2] was 20200 nM and the EC50 (PCSK9 [3]) was 300 nM. For the same compound, the IC50 (PCSK9 [4]) was 3.2 nM.
`COc1cccn(-c2ccc(N[C@H]3CC[C@H](Nc4cnc(C)c(C)n4)C3)nc2)c1=O` [Example 12, 6′-(((1S,3S)-3-((5,6-Dimethylpyrazin-2-yl)amino)cyclopentyl)amino)-3-methoxy-2H-[1,3′-bipyridin]-2-one] was tested, and the IC50 [1] was greater than 10 µM, the IC50 [2] was greater than 40000 nM and the EC50 (PCSK9 [3]) was 100 nM. For the same compound, the IC50 (PCSK9 [4]) was 13 nM.
`COc1cccn(-c2ccc(N[C@H]3CC[C@H](Nc4cnc(Cl)cn4)C3)nc2)c1=O` [Example 13, 6′-(((1S,3S)-3-((5-Chloropyrazin-2-yl)amino)cyclopentyl)amino)-3-methoxy-2H-[1,3′-bipyridin]-2-one] gave an IC50 [1] greater than 10 µM, an IC50 [2] of 35600 nM and an EC50 (PCSK9 [3]) of 200 nM. For the same compound, the IC50 (PCSK9 [4]) was 4 nM.
For `Cc1ncc(N[C@H]2CC[C@H](Nc3ccc(-n4cc(C(=O)O)ccc4=O)cn3)C2)nc1C` [Example 14, 6′-(((1S,3S)-3-((5,6-Dimethylpyrazin-2-yl)amino)cyclopentyl)amino)-2-oxo-2H-[1,3′-bipyridine]-5-carboxylic acid], the IC50 [1] was greater than 10 µM, the IC50 [2] was greater than 40000 nM and the EC50 (PCSK9 [3]) was 200 nM. It also gave an IC50 (PCSK9 [4]) of 52 nM.
Work on `Cc1ncc(N[C@H]2CC[C@H](Nc3ccc(-n4cccc(Cl)c4=O)cn3)C2)nc1C` [Example 19, 3-Chloro-6′-(((1S,3S)-3-((5,6-dimethylpyrazin-2-yl)amino)cyclopentyl)amino)-2H-[1,3′-bipyridin]-2-one] yielded an IC50 [1] greater than 10 µM, an IC50 [2] of 24600 nM and an EC50 (PCSK9 [3]) of 100 nM. It also gave an IC50 (PCSK9 [4]) of 5.3 nM.
With `Cc1ncc(N[C@H]2CC[C@H](Nc3ccc(-n4c(=O)ccc5cccnc54)cn3)C2)nc1C` [Example 20, 1-(6-(((1S,3S)-3-((5,6-Dimethylpyrazin-2-yl)amino)cyclopentyl)amino)pyridin-3-yl)-1,8-naphthyridin-2 (1H)-one] the IC50 [1] was greater than 10 µM, the IC50 [2] was greater than 40000 nM and the EC50 (PCSK9 [3]) was 100 nM. For the same compound, the IC50 (PCSK9 [4]) was 17 nM.
Compound `Cc1ncc(N[C@H]2CC[C@H](Nc3ccc(-n4c(=O)n(C)c5cccnc54)cn3)C2)nc1C` [Example 21, 3-(6-(((1S,3S)-3-((5,6-Dimethylpyrazin-2-yl)amino)cyclopentyl)amino)pyridin-3-yl)-1-methyl-1,3-dihydro-2H-imidazo[4,5-b]pyridin-2-one] has an IC50 [1] greater than 10 µM, an IC50 [2] of 33200 nM and an EC50 (PCSK9 [3]) of 100 nM. It also gave an IC50 (PCSK9 [4]) of 11 nM.
For `Cc1ncc(N[C@H]2CC[C@H](Nc3ccc(-n4cccc(C#N)c4=O)cn3)C2)nc1C` [Example 23, 6′-(((1S,3S)-3-((5,6-Dimethylpyrazin-2-yl)amino)cyclopentyl)amino)-2-oxo-2H-[1,3′-bipyridine]-3-carbonitrile], the IC50 [1] was greater than 10 µM, the IC50 [2] was 35900 nM and the EC50 (PCSK9 [3]) was 700 nM. It also gave an IC50 (PCSK9 [4]) of 8.8 nM.
In the case of `O=c1[nH]c2ccccc2n1-c1ccc(N[C@H]2CC[C@H](Nc3cnc(Cl)cn3)C2)nc1` [Example 31, 1-(6-(((1S,3S)-3-((5-Chloropyrazin-2-yl)amino)cyclopentyl)amino)pyridin-3-yl)-1,3-dihydro-2H-benzo[d]imidazol-2-one], the IC50 [1] is reported as greater than 10 µM, the IC50 [2] is reported as 8200 nM and the EC50 (PCSK9 [3]) is reported as 200 nM. For the same compound, the IC50 (PCSK9 [4]) was 3.7 nM.
In the case of `O=c1ccc(-c2nnn[nH]2)cn1-c1ccc(N[C@H]2CC[C@H](Nc3cnc(Cl)cn3)C2)nc1` [Example 179, 6′-(((1S,3S)-3-((5-Chloropyrazin-2-yl)amino)cyclopentyl)amino)-5-(1H-tetrazol-5-yl)-2H-[1,3′-bipyridin]-2-one], the IC50 [1] is reported as 6.9 µM, the EC50 (PCSK9 [3]) is reported as 100 nM and the IC50 (PCSK9 [4]) is reported as 4.7 nM.
With `Cc1cnc(N[C@H]2CC[C@H](Nc3ccc(N4C(=O)CCc5cccnc54)cn3)C2)cn1` [Example 276, 1-(6-(((1S,3S)-3-((5-Methylpyrazin-2-yl)amino)cyclopentyl)amino)pyridin-3-yl)-3,4-dihydro-1,8-naphthyridin-2 (1H)-one] the IC50 [1] was greater than 10 µM, the IC50 [2] was greater than 40000 nM and the IC50 (PCSK9 [4]) was 80 nM.
In the case of `Cc1cnc(N[C@H]2CC[C@H](Nc3ccc(-n4nccc(OC(F)F)c4=O)cn3)C2)cn1` [Example 282, 4-(Difluoromethoxy)-2-(6-(((1S,3S)-3-((5-methylpyrazin-2-yl)amino)cyclopentyl)amino)pyridin-3-yl)pyridazin-3 (2H)-one], the IC50 [1] is reported as greater than 10 µM, the IC50 [2] is reported as greater than 40100 nM and the IC50 (PCSK9 [4]) is reported as 10 nM.
